Measured values taken from PubChem BioAssay AID652216 (The Scripps Research Institute Molecular Screening Center, 2013).
Calls of active or inactive are those of the source.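 The calls were made as follows: active = IC50 below 10 µM against protein phosphatase 1 in the dose response test; inactive = IC50 of 10 µM or more.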

What follows are compounds tested against Serine/threonine-protein phosphatase PP1-alpha catalytic subunit (Homo sapiens) (UniProt P62136) (assay: dose-dependent PP1alpha phosphatase inhibition – biochemical, fluorescence, OMFP substrate, set 4, dose response (AID 652216)). Details: purified PP1alpha, OMFP dephosphorylation fluorescence.
Chain of Serine/threonine-protein phosphatase PP1-alpha catalytic subunit (Homo sapiens) (P62136 whole entry, looked up): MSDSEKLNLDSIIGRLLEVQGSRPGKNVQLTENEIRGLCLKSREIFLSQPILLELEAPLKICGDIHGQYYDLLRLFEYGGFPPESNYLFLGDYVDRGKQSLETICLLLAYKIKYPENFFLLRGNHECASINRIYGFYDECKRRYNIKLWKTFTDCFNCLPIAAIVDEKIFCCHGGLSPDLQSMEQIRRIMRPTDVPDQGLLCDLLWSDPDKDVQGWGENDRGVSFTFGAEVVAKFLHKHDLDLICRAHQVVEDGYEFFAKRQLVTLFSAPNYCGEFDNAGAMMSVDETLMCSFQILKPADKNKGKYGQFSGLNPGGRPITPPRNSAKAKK

IC50	SMILES
8.84 µM	CN1CCN([C@H](c2ccc(C(F)(F)F)cn2)c2ccc3cccnc3c2O)CC1
4.51 µM	CN1CCN(C(c2ccc(C(F)(F)F)cn2)c2ccc3cccnc3c2O)CC1 (centres undefined)
inactive	CN1CCN(C(c2cccc(F)n2)c2ccc3cccnc3c2O)CC1 (centres undefined)
8.39 µM	CN1CCN([C@@H](c2ccc(C(F)(F)F)cn2)c2ccc3cccnc3c2O)CC1
